Assay results from EP4273147A1, “SUBSTITUTED SPIROLACTAMS, SALTS THEREOF AND THEIR USE AS HERBICIDALLY ACTIVE SUBSTANCES” (Bayer Aktiengesellschaft, priority 2022, dated 2023).

Assays:
ECHCG [1] = experiment: Herbicidal post-emergence action (Table B3); format: in vivo, Echinochloa crus-galli; conditions: application rate 1280 g/ha; rated visually after about 3 weeks
Summary of the method: (§1)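 Sow weeds in sandy loam pots, one species each; grow in greenhouse 2–3 weeks to one-leaf stage; treat; hold ~3 weeks under optimum conditions; rate damage visually vs untreated (0–100%).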

MATIN [2] = experiment: Herbicidal post-emergence action (Table B6); format: in vivo, Matricaria inodora; conditions: application rate 320 g/ha; rated visually after about 3 weeks
Summary of the method: as §1

POAAN [3] = experiment: Herbicidal post-emergence action (Table B7); format: in vivo, Poa annua
Summary of the method: as §1

KCHSC [4] = experiment: Herbicidal post-emergence action (Table B4); format: in vivo, Kochia scoparia; conditions: application rate 1280 g/ha; rated visually after about 3 weeks
Description: (§2) Seeds of mono- and dicotyledonous weed plants were placed in plastic pots in sandy loam soil (doubly sown with in each case one species of mono- or dicotyledonous weed plants per pot), covered with soil and cultivated in a greenhouse under controlled growth conditions. 2 to 3 weeks after sowing, the test plants were treated at the one-leaf stage. […] After the test plants had been kept in the greenhouse under optimum growth conditions for about 3 weeks, the activity of the preparations was rated visually in comparison to untreated controls. For example, 100% activity = the plants have died, 0% activity = like control plants.

ABUTH [5] = experiment: Herbicidal pre-emergence action (Table A1); format: in vivo, Abutilon theophrasti; conditions: application rate 1280 g/ha; visual grading after ca. 3 weeks vs untreated controls (100% = plants have died off, 0% = as control plants)
Summary of the method: (§3)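 Seeds covered with soil after sowing in sandy loam; every pot carried one monocotyledonous and one dicotyledonous weed species as a double sowing.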

ORYZA [6] = experiment: Post-emergence effects on crop plants (Table F3); format: in vivo, Oryza sativa; conditions: application rate 320 g/ha, crop plant ORYZA
Description: (§4) 2 to 3 weeks after sowing, the test plants were sprayed in the single-leaf stage.

ECHCG [7] = experiment: Herbicidal pre-emergence action (Table A2); format: in vivo, Echinochloa crus-galli; conditions: application rate 320 g/ha; visual grading after ca. 3 weeks
Summary of the method: as §3

ALOMY [8] = experiment: Herbicidal pre-emergence action, section C (Table C2); format: in vivo, Alopecurus myosuroides; conditions: application rate 320 g/ha; visual grading after ca. 3 weeks
ZEAMX [9] = experiment: Post-emergence effects on crop plants (Table F1); format: in vivo, Zea mays; conditions: application rate 320 g/ha, crop plant ZEAMX
Description: as §4

VERPE [10] = experiment: Herbicidal pre-emergence action (Table A11); format: in vivo, Veronica persica; conditions: application rate 1280 g/ha; visual grading after ca. 3 weeks
Summary of the method: as §3

ORYZA [11] = experiment: Pre-emergence effects on crop plants (Table D3); conditions: crop plant; application rate 80 g/ha; visual grading after ca. 3 weeks
SETVI [12] = experiment: Herbicidal post-emergence action, section E (Table E8); format: in vivo, Setaria viridis; conditions: application rate 320 g/ha; assessed visually after ca. 3 weeks
Description: as §4

POAAN [13] = experiment: Herbicidal pre-emergence action (Table A7); format: in vivo, Poa annua; conditions: application rate 1280 g/ha; visual grading after ca. 3 weeks
Summary of the method: as §3

MATIN [14] = experiment: Herbicidal pre-emergence action (Table A4); format: in vivo, Matricaria inodora; conditions: application rate 320 g/ha; visual grading after ca. 3 weeks
Summary of the method: as §3

SETVI [15] = experiment: Herbicidal pre-emergence action (Table A5); format: in vivo, Setaria viridis; conditions: visual grading after ca. 3 weeks
Summary of the method: as §3

ALOMY [16] = experiment: Herbicidal post-emergence action, section E (Table E2); format: in vivo, Alopecurus myosuroides; conditions: application rate 320 g/ha; assessed visually after ca. 3 weeks
Description: as §4

BRSNW [17] = experiment: Pre-emergence effects on crop plants (Table D5); format: in vivo, Brassica napus; conditions: crop plant, visual grading after ca. 3 weeks
LOLRI [18] = experiment: Herbicidal pre-emergence action, section C (Table C7); format: in vivo, Lolium rigidum; conditions: application rate 80 g/ha; visual grading after ca. 3 weeks
Description: (§5) Seeds of mono- and dicotyledonous weed plants and crop plants were sown, in plastic or organic planting pots, in sandy loam and covered with soil. The compounds according to the invention, formulated in the form of wettable powders (WP) or as emulsifiable concentrates (EC), were applied to the surface of the covering soil as aqueous suspension or emulsion, with the addition of 0.5% of an additive, at an application rate of 600 1 of water/ha (converted). Following treatment, the pots were placed in a greenhouse and kept under optimum growth conditions for the test plants.

SETVI [19] = experiment: Herbicidal pre-emergence action, section C (Table C10); format: in vivo, Setaria viridis; conditions: application rate 80 g/ha; visual grading after ca. 3 weeks
BRSNW [20] = experiment: Post-emergence effects on crop plants (Table F5); format: in vivo, Brassica napus; conditions: application rate 320 g/ha, crop plant BRSNW
Description: as §4

KCHSC [21] = experiment: Herbicidal pre-emergence action (Table A10); format: in vivo, Kochia scoparia; conditions: application rate 320 g/ha; visual grading after ca. 3 weeks
Summary of the method: as §3

AMARE [22] = experiment: Herbicidal pre-emergence action (Table A8); format: in vivo, Amaranthus retroflexus; conditions: application rate 320 g/ha; visual grading after ca. 3 weeks vs untreated controls (100% = plants have died off, 0% = as control plants)
Summary of the method: as §3

STEME [23] = experiment: Herbicidal pre-emergence action (Table A6); format: in vivo, Stellaria media; conditions: application rate 320 g/ha; visual grading after ca. 3 weeks
Summary of the method: as §3

GLXMA [24] = experiment: Post-emergence effects on crop plants (Table F4); format: in vivo, Glycine max; conditions: application rate 320 g/ha, crop plant GLXMA
Description: as §4

ECHCG [25] = experiment: Herbicidal pre-emergence action, section C (Table C6); format: in vivo, Echinochloa crus-galli; conditions: application rate 320 g/ha; visual grading after ca. 3 weeks
Description: as §5

ECHCG [26] = experiment: Herbicidal post-emergence action, section E (Table E5); format: in vivo, Echinochloa crus-galli; conditions: application rate 320 g/ha; assessed visually after ca. 3 weeks
Description: as §4

AMARE [27] = experiment: Herbicidal pre-emergence action, section C (Table C3); format: in vivo, Amaranthus retroflexus; conditions: application rate 320 g/ha; visual grading after ca. 3 weeks
LOLRI [28] = experiment: Herbicidal pre-emergence action (Table A3); format: in vivo, Lolium rigidum; conditions: visual grading after ca. 3 weeks
Summary of the method: as §3

ALOMY [29] = experiment: Herbicidal pre-emergence action (Table A9); format: in vivo, Alopecurus myosuroides; conditions: application rate 1280 g/ha; visual grading after ca. 3 weeks
Summary of the method: as §3

GLXMA [30] = experiment: Pre-emergence effects on crop plants (Table D4); format: in vivo, Glycine max; conditions: crop plant; application rate 80 g/ha; visual grading after ca. 3 weeks
Description: (§6) Seeds of mono- and dicotyledonous weed plants and crop plants were sown, in plastic or organic planting pots, in sandy loam and covered with soil. The compounds according to the invention, formulated in the form of wettable powders (WP) or as emulsifiable concentrates (EC), were applied to the surface of the covering soil as aqueous suspension or emulsion, with the addition of 0.5% of an additive, at an application rate of 600 1 of water/ha (converted).
(§7) Following treatment, the pots were placed in a greenhouse and kept under optimum growth conditions for the test plants.

AMARE [31] = experiment: Herbicidal post-emergence action (Table B11); format: in vivo, Amaranthus retroflexus; conditions: application rate 1280 g/ha
Summary of the method: as §1

STEME [32] = experiment: Herbicidal post-emergence action (Table B9); format: in vivo, Stellaria media; conditions: application rate 1280 g/ha
Description: as §2

LOLRI [33] = experiment: Herbicidal post-emergence action (Table B5); format: in vivo, Lolium rigidum; conditions: application rate 1280 g/ha; rated visually after about 3 weeks
Summary of the method: as §1

MATIN [34] = experiment: Herbicidal pre-emergence action, section C (Table C8); format: in vivo, Matricaria inodora; conditions: application rate 320 g/ha; visual grading after ca. 3 weeks
Description: as §5

TRZAS [35] = experiment: Pre-emergence effects on crop plants (Table D2); format: in vivo, Triticum aestivum; conditions: crop plant; application rate 80 g/ha; visual grading after ca. 3 weeks
Description: as §6, §7

VIOTR = experiment: Herbicidal pre-emergence action, section C (Table C12); format: in vivo, Viola tricolor; conditions: application rate 320 g/ha; visual grading after ca. 3 weeks
VERPE [36] = experiment: Herbicidal post-emergence action (Table B10); format: in vivo, Veronica persica; conditions: application rate 1280 g/ha
Summary of the method: as §1

ZEAMX [37] = experiment: Pre-emergence effects on crop plants (Table D1); format: in vivo, Zea mays; conditions: crop plant; application rate 80 g/ha; visual grading after ca. 3 weeks
TRZAS [38] = experiment: Post-emergence effects on crop plants (Table F2); format: in vivo, Triticum aestivum; conditions: application rate 320 g/ha, crop plant TRZAS
Description: as §4

VERPE [39] = experiment: Herbicidal pre-emergence action, section C (Table C11); format: in vivo, Veronica persica; conditions: application rate 320 g/ha; visual grading after ca. 3 weeks
DIGSA = experiment: Herbicidal pre-emergence action, section C (Table C5); format: in vivo, Digitaria sanguinalis; conditions: application rate 320 g/ha; visual grading after ca. 3 weeks
Description: as §5

ABUTH [40] = experiment: Herbicidal pre-emergence action, section C (Table C1); format: in vivo, Abutilon theophrasti; conditions: application rate 320 g/ha; visual grading after ca. 3 weeks

O=C1N(Cc2cccs2)CCCC12CCCN(Cc1c(F)cccc1F)C2=O (racemic) [I-011]
post-emergence activity against ECHCG (ECHCG [1]): 90%
post-emergence activity against MATIN (MATIN [2]): 90%
post-emergence activity against POAAN (POAAN [3]; application rate 320 g/ha): 100%
post-emergence activity against KCHSC (KCHSC [4]): 90%
pre-emergence activity against ABUTH (ABUTH [5]): 90%
post-emergence activity against ORYZA (ORYZA [6]): 20%
pre-emergence activity against ECHCG (ECHCG [7]): 100%
pre-emergence activity against ALOMY (ALOMY [8]): 90%
post-emergence activity against ZEAMX (ZEAMX [9]): 10%
pre-emergence activity against VERPE (VERPE [10]): 90%
pre-emergence activity against ORYZA (ORYZA [11]): 10%
post-emergence activity against SETVI (SETVI [12]): 80%
pre-emergence activity against POAAN (POAAN [13]): 100%
pre-emergence activity against MATIN (MATIN [14]): 90%
pre-emergence activity against SETVI (SETVI [15]; application rate 320 g/ha): 100%
post-emergence activity against ALOMY (ALOMY [16]): 80%
pre-emergence activity against BRSNW (BRSNW [17]; application rate 80 g/ha): 20%
pre-emergence activity against LOLRI (LOLRI [18]): 80%
pre-emergence activity against SETVI (SETVI [19]): 100%
post-emergence activity against BRSNW (BRSNW [20]): 0%
pre-emergence activity against KCHSC (KCHSC [21]): 90%
pre-emergence activity against AMARE (AMARE [22]): 90%
pre-emergence activity against STEME (STEME [23]): 90%
post-emergence activity against GLXMA (GLXMA [24]): 20%
pre-emergence activity against ECHCG (ECHCG [25]): 90%
post-emergence activity against ECHCG (ECHCG [26]): 80%
pre-emergence activity against AMARE (AMARE [27]): 90%
pre-emergence activity against LOLRI (LOLRI [28]; application rate 1280 g/ha): 100%
pre-emergence activity against ALOMY (ALOMY [29]): 90%
pre-emergence activity against GLXMA (GLXMA [30]): 20%
post-emergence activity against AMARE (AMARE [31]): 90%
post-emergence activity against STEME (STEME [32]): 90%
post-emergence activity against LOLRI (LOLRI [33]): 90%
pre-emergence activity against MATIN (MATIN [34]): 80%

O=C1N(Cc2ccccc2)CCCC12CCCN(Cc1ccccc1Cl)C2=O (racemic) [I-066]
post-emergence activity against ECHCG (ECHCG [1]): 90%
post-emergence activity against POAAN (POAAN [3]; application rate 1280 g/ha): 90%
pre-emergence activity against TRZAS (TRZAS [35]): 0%
post-emergence activity against ORYZA (ORYZA [6]): 0%
pre-emergence activity against ECHCG (ECHCG [7]): 100%
pre-emergence activity against VIOTR (VIOTR): 80%
pre-emergence activity against ALOMY (ALOMY [8]): 90%
post-emergence activity against ZEAMX (ZEAMX [9]): 0%
post-emergence activity against VERPE (VERPE [36]): 90%
pre-emergence activity against SETVI (SETVI [15]; application rate 1280 g/ha): 100%
pre-emergence activity against ZEAMX (ZEAMX [37]): 10%
pre-emergence activity against BRSNW (BRSNW [17]; application rate 320 g/ha): 0%
pre-emergence activity against SETVI (SETVI [19]): 100%
post-emergence activity against BRSNW (BRSNW [20]): 0%
post-emergence activity against TRZAS (TRZAS [38]): 0%
pre-emergence activity against ECHCG (ECHCG [25]): 80%
post-emergence activity against ECHCG (ECHCG [26]): 80%
pre-emergence activity against AMARE (AMARE [27]): 90%
pre-emergence activity against LOLRI (LOLRI [28]; application rate 320 g/ha): 100%
pre-emergence activity against GLXMA (GLXMA [30]): 0%

O=C1N(Cc2c(F)cccc2F)CCCC12CCCN(Cc1c(F)cccc1F)C2=O (single isomer, unassigned; (+)) [I-083, (+)-2,8-bis[(2,6-difluorophenyl)methyl]-2,8-diazaspiro[5.5]undecane-1,7-dione]
pre-emergence activity against VERPE (VERPE [39]): 100%
post-emergence activity against ORYZA (ORYZA [6]): 0%
pre-emergence activity against VIOTR (VIOTR): 100%
pre-emergence activity against ALOMY (ALOMY [8]): 90%
post-emergence activity against ZEAMX (ZEAMX [9]): 0%
pre-emergence activity against DIGSA (DIGSA): 90%
pre-emergence activity against ABUTH (ABUTH [40]): 100%
post-emergence activity against BRSNW (BRSNW [20]): 0%
post-emergence activity against GLXMA (GLXMA [24]): 0%
post-emergence activity against TRZAS (TRZAS [38]): 10%
pre-emergence activity against AMARE (AMARE [27]): 100%
pre-emergence activity against MATIN (MATIN [34]): 100%
